Assays:
[1] = system: Con A-activated splenocytes; experiment: ELISPOT enumeration of IFN-γ and IL-4 producing cells in Con A-stimulated spleen cell cultures with culture supplements; assay type: cell-based, rat
Description: The aseptically removed spleen was gently crushed with the blunt end of a 5-ml syringe plunger and passaged through a fine mesh nylon screen. Erythrocytes were hemolysed by adding cold sterile water for 20 sec. to cell pellets followed by the addition of half the volume of 2.7% saline. The number of cells was determined by use of Türk's solution and cell viability by means of trypan blue exclusion. Cell suspensions in which the viability was less than 85% were excluded from the studies. Splenocytes were washed twice with CM5, adjusted to 4 x 10^6 cells/ml, transferred to a 24-well culture plate (1.0 ml/well) and stimulated with Con A (5 µg/ml) in the presence or absence of various supplements (as indicated in the text) for 40 h at 37°C in a humidified atmosphere containing 5% CO2. Thereafter, non-adherent cells were collected and subjected to ELISPOT analyses as described below.
The ELISPOT assay for detecting single cytokine secreting cells has been detailed previously (17). Briefly, the wells of PVC microplates were coated with monoclonal antibodies specific for rat IFN-γ or rat IL-4. After washing and postcoating, 100 µl suspensions of Con A-activated splenocytes were pipetted into the wells. The cells were allowed the produce cytokines for either 4 h (IFN-γ pc) or 16 h (IL-4 pc). Thereafter, cells were lysed for 10 minutes with ice-cold distilled water. Subsequently, the wells were thoroughly washed with PBS containing 0.05% Tween-20. Spots were detected by the sequential incubation of biotinylated rabbit anti-cytokine antibodies and goat anti-biotin antibodies conjugated to alkaline phosphatase (AP). The AP substrate 5-bromo-4-chloro-3-indolyl phosphate was used to produce blue zones ('spots') that visualised the positions of the individual spot-forming cells (SFC). SFC were enumerated by image analysis using a stereo microscope coupled to a colour video camera and Micro Image software from Olympus Optical Co. The frequency of spontaneously occurring SFC was always less than 1% of the mitogen-induced frequency.

peritoneal macrophages [2] = experiment: Superoxide anion production by purified peritoneal macrophages (SOD-inhibitable ferricytochrome C reduction); assay type: cell-based, rat; conditions: stimulus PMA 5 ng/ml
Description: (§1) Peritoneal cells were collected from rats by lavage with 10 ml ice-cold saline containing 50 units/ml heparin. Cells were washed twice with CM10 and resuspended in CM10 to a concentration of 2 x 10^6 cells/ml. Total cell counts were obtained with a Bürker hemocytometer and differential counts performed on centrifuge preparations fixed in absolute methanol and stained with Giemsa stain. The peritoneal cell suspension of Lewis rats consisted of 70 ± 3% macrophages, 13 ± 1% lymphocytes, 14 ± 1% granulocytes and 3 ± 1% mast cells (n = 3). The peritoneal cells of BN rats were composed of 61 ± 2% macrophages, 12 ± 1% lymphocytes, 26 ± 2% granulocytes and 2 ± 1% mast cells (n = 3). Cells were fractionated by culturing them in the wells of a 24-well tissue culture plate at a concentration of 2 x 10^6 cells/ml in CM10. […]
The pMØ monolayers were incubated for 20 h at 37°C in CM10 and subsequently washed (twice) with Hanks' balanced salt solution (HBSS) without phenol red. […] Each test was run in duplicate and the absorption increase at 550 nm was measured using a Beckmann DU-5 spectrophotometer. ^·O2^- release by splenocytes was determined after Con A activation of 4 x 10^6 cells for 20 h. […]

peritoneal macrophages [3] = experiment: H2O2 production by purified peritoneal macrophages (homovanillic acid/HRP); assay type: cell-based, rat; conditions: stimulus PMA 5 ng/ml
Description: The spontaneous or PMA/IFN-γ-triggered release of H2O2 was determined by the same method as described for splenocytes. Macrophage monolayers were incubated for 24 h in CM10 with or without rat IFN-γ (1000 U/ml). Subsequently, cells were washed twice with prewarmed PBS and incubated for 1 h in 1.0 ml PBS containing […] CaCl2, […] MgCl2, […] D-glucose, 1.0 unit HRP, […] homovanillic acid and 5 ng/ml PMA. After termination of the reaction, the amount of oxidised homovanillic acid in the supernatant was determined spectrofluorometrically. The cellular proteins in the wells were solubilized by adding 250 µl 0.5% (w/v) sodium dodecylsulphate in 0.2 N NaOH. The amount of solubilized protein was determined by a modification of the Lowry method (19). The results are expressed as nmoles H2O2 per mg of protein.
as §1, with “3).” for “3). The peritoneal cells of BN rats were composed of 61 ± 2% macrophages, 12 ± 1% lymphocytes, 26 ± 2% granulocytes and 2 ± 1% mast cells (n = 3). Cells were fractionated by culturing them in the wells of a 24-well tissue culture plate at a concentration of 2 x 10^6 cells/ml in CM10.”

[4] = GSH-mediated decomposition of GSNO in phosphate buffer (absorbance 335 nm, nitrite, nitrate, ammonia); assay type: physicochemical
Description: For each experiment GSNO was prepared freshly. […] Three independent experiments were performed with similar results. […] Nitrite levels were measured by the colorimetric Griess reaction. Two independent experiments were performed which produced similar results.
Nitrate was not detected in the solutions.

[5] = excess reducing agent added to cultures, splenocytes from BN or Lewis rats
[6] = BN naive rats, NMMA 180 µM added after 20 h Con A + 2 mM GSH, further 20 h
[7] = BN naive rats, NMMA 360 µM added after 20 h Con A + 2 mM GSH, further 20 h
[8] = BN, HgCl2-exposed rats, NMMA 180 µM added after 20 h Con A + 2 mM GSH, further 20 h
[9] = BN, HgCl2-exposed rats, NMMA 360 µM added after 20 h Con A + 2 mM GSH, further 20 h
[10] = Lewis naive rats, NMMA 180 µM added after 20 h Con A + 2 mM GSH, further 20 h
[11] = Lewis naive rats, NMMA 360 µM added after 20 h Con A + 2 mM GSH, further 20 h
[12] = Lewis, HgCl2-exposed rats, NMMA 180 µM added after 20 h Con A + 2 mM GSH, further 20 h
[13] = Lewis, HgCl2-exposed rats, NMMA 360 µM added after 20 h Con A + 2 mM GSH, further 20 h
[14] = BN normal rats, GSH 2 mM, Con A
[15] = Lewis normal rats, GSH 2 mM, Con A
[16] = normal Lewis rats, GSH 2 mM, no XO/HY, Con A 5 µg/ml (Table 5)

OO [H2O2, hydrogen peroxide]
frequencies of IFN-γ pc and IL-4 pc ([1]; H2O2 up to 100 µM added to cultures (not shown)): did not affect

CCCCCCCCCCCCCC(=O)O[C@@H]1[C@@H](C)[C@@]2(O)[C@@H](C=C(CO)C[C@]3(O)C(=O)C(C)=C[C@@H]23)[C@@H]2C(C)(C)[C@]12OC(C)=O [PMA, phorbol 12-myristate 13-acetate]
ROI ^·O2^- (nmol/mg protein) (peritoneal macrophages [2]; BN normal rats): 388.2 nmol/mg protein
ROI ^·O2^- (nmol/mg protein) (peritoneal macrophages [2]; Lewis normal rats): 62.1 nmol/mg protein
ROI H2O2 (nmol/mg protein) (peritoneal macrophages [3]; BN normal rats): 8.7 nmol/mg protein
ROI H2O2 (nmol/mg protein) (peritoneal macrophages [3]; Lewis normal rats): 1.9 nmol/mg protein

N[C@@H](CCC(=O)N[C@@H](CSN=O)C(=O)NCC(=O)O)C(=O)O [GSNO, S-nitrosoglutathione]
Nitrate in the solutions ([4]; GSH-triggered decomposition of GSNO): not detected
decomposition of GSNO ([4]; absence of GSH, 0.1 mM, 42 h, room temperature (not shown)): no significant decomposition
major decomposition product ([4]; molar ratios exceeding 20 (Fig. 5)): NH3
time in which decomposition was almost completed ([4]; ratio of GSH:GSNO of 320 (fig. 3)): ~5 h

N[C@@H](CS)C(=O)O [cysteine]
enhancement of the ratio of IFN-γ pc/IL-4 pc [1, 5]: approximately 10 fold

CNC(=N)NCCC[C@H](N)C(=O)O [NMMA, N^G-monomethyl-L-arginine]
IFN-γ pc per 1x10^4 MNC [1, 6]: 209 ± 19 per 1x10^4 MNC
IL-4 pc per 2x10^5 MNC [1, 6]: 32 ± 6 per 2x10^5 MNC
ratio pc IFN-γ/IL-4 [1, 6]: 131
IFN-γ pc per 1x10^4 MNC [1, 7]: 251 ± 14 per 1x10^4 MNC
IL-4 pc per 2x10^5 MNC [1, 7]: 30 ± 2 per 2x10^5 MNC
ratio pc IFN-γ/IL-4 [1, 7]: 167
IFN-γ pc per 1x10^4 MNC [1, 8]: 71 ± 11 per 1x10^4 MNC
IL-4 pc per 2x10^5 MNC [1, 8]: 54 ± 11 per 2x10^5 MNC
ratio pc IFN-γ/IL-4 [1, 8]: 26
IFN-γ pc per 1x10^4 MNC [1, 9]: 92 ± 17 per 1x10^4 MNC
IL-4 pc per 2x10^5 MNC [1, 9]: 20 ± 5 per 2x10^5 MNC
ratio pc IFN-γ/IL-4 [1, 9]: 92
enhancement of the ratio of IFN-γ pc/IL-4 pc ([1]; HgCl2-exposed rats, BN splenocyte cultures): 11 fold
enhancement of the ratio of IFN-γ pc/IL-4 pc ([1]; HgCl2-exposed rats, Lewis splenocyte cultures): 2 fold
IFN-γ pc per 1x10^4 MNC [1, 10]: 175 ± 9 per 1x10^4 MNC
IL-4 pc per 2x10^5 MNC [1, 10]: 14 ± 7 per 2x10^5 MNC
ratio pc IFN-γ/IL-4 [1, 10]: 250
IFN-γ pc per 1x10^4 MNC [1, 11]: 178 ± 11 per 1x10^4 MNC
IL-4 pc per 2x10^5 MNC [1, 11]: 13 ± 2 per 2x10^5 MNC
ratio pc IFN-γ/IL-4 [1, 11]: 274
IFN-γ pc per 1x10^4 MNC [1, 12]: 112 ± 5 per 1x10^4 MNC
IL-4 pc per 2x10^5 MNC [1, 12]: 10 ± 5 per 2x10^5 MNC
ratio pc IFN-γ/IL-4 [1, 12]: 224
IFN-γ pc per 1x10^4 MNC [1, 13]: 135 ± 10 per 1x10^4 MNC
IL-4 pc per 2x10^5 MNC [1, 13]: 8 ± 2 per 2x10^5 MNC
ratio pc IFN-γ/IL-4 [1, 13]: 338
increase in the ratio of IFN-γ pc/IL-4 pc ([1]; splenocyte cultures of naive BN rats): 4 fold

N[C@@H](CCC(=O)N[C@@H](CS)C(=O)NCC(=O)O)C(=O)O [GSH, Glutathione]
IFN-γ pc per 1x10^4 MNC [1, 14]: 98 ± 11 per 1 x 10^4 MNC
IL-4 pc per 2x10^5 MNC [1, 14]: 60 ± 5 per 2 x 10^5 MNC
ratio IFN-γ pc/IL-4 pc [1, 14]: 34
IFN-γ pc per 1x10^4 MNC [1, 15]: 139 ± 14 per 1 x 10^4 MNC
IL-4 pc per 2x10^5 MNC [1, 15]: 11 ± 3 per 2 x 10^5 MNC
ratio IFN-γ pc/IL-4 pc [1, 15]: 253
enhancement of the ratio of IFN-γ pc/IL-4 pc [1, 5]: approximately 10 fold
IFN-γ pc per 1x10^4 MNC [1, 16]: 103 ± 23 per 1 x 10^4 MNC
IL-4 pc per 2x10^5 MNC [1, 16]: 6 ± 1 per 2 x 10^5 MNC
ratio IFN-γ pc/IL-4 pc [1, 16]: 343
